Results: patent US7745619B2, “Vinca derivatives” (priority 2003, dated 2010)
Like-named read-outs stand apart in the source and are kept apart here.

Experiments:
[1] = system: MCF-7 cells; assay: MCF-7 GI50 determination (crystal violet growth inhibition); type: cell-based, human; conditions: Homo sapiens, MCF7, 96 h
Experimental: Growth inhibition (GI50) values were measured on the human breast carcinoma line, MCF-7. MCF-7 cells were plated at 2×10^4 cells/well in 96 well plates and grown for 24 hours in drug free media. On day 2, test compounds were added to the plates at 10-fold dilutions. Four days later, cells were fixed by the addition of glutaraldehyde to 0.75%. After 30 min, the fixed cells were extensively rinsed with distilled water and dried at room temperature for one hour. The cells were then stained with a 0.2% crystal violet solution for one hour at room temperature. Unbound stain was removed by ten rinses with tap water and plates were allowed to air dry for 30 min. The crystal violet was then solubilized by the addition of 10% acetic acid for 15 min and quantified by measuring absorbance at 570 nm on a Molecular Devices microplate reader. Growth inhibition was calculated according to the following equation: GI=[…], where the optical density (OD) of the test well after 4 days of treatment was T, the OD of the wells in the control plate on day 0 was T0. Plots of percent growth inhibition versus inhibitor concentration were used to determine the GI50.

[2] = system: HeLa S-3 cells; assay: HeLa GI50 determination (SRB growth inhibition); type: cell-based, human; conditions: Homo sapiens, HeLa S3, 48 h
Experimental: Growth inhibition (GI50) values were measured on the human cervical carcinoma cell line, HeLa S-3, which were selected for growth on plastic. The HeLa cell assay was based on the description of Skehan et al., J. Natl. Cancer Inst., 82:1107-12 (1990), which is hereby incorporated by reference in its entirety. HeLa cells were plated at 2×10^4 cells/well in 96 well plates. One day later, a control plate was fixed by the addition of TCA to 5%. After five rinses with tap water, the plate was air-dried and stored at 4° C. Test compounds were added to the remaining plates at 10-fold dilutions. Two days later, all plates were fixed as described above. Cells were then stained by the addition of 100 μL per well of 0.4% sulforhodamine B (SRB) in 1% acetic acid for 30 min at 4° C. Wells were then quickly rinsed 5× with 1% acetic acid and allowed to air dry. The SRB was then solubilized by the addition of 100 μL per well of unbuffered 10 mM Tris base. Dye was quantified by measuring absorbance at 490 nm on a Molecular Devices microplate reader. Growth inhibition was calculated according to the following equation: GI=100×(T−T0)/(C−T0), where the optical density (OD) of the test well after 2 days of treatment was T, the OD of the wells in the control plate on day 0 was T0 and C was the OD of untreated wells. Plots of percent growth inhibition versus inhibitor concentration were used to determine the GI50.

[3] = MCF-7 cells, 4 days of treatment, crystal violet, read-out: MCF-7 Cells GI50
[4] = HeLa S-3 cells, 2 days of treatment, sulforhodamine B, read-out: HeLa Cells GI50
[5] = read-out: MCF-7 Cells GI50 (nM)

CCCCCCc1ccc2[nH]c3c(c2c1)CCN1C[C@H](C[C@@](O)(CC)C1)C[C@]3(C(=O)OC)c1cc2c(cc1OC)N(C=O)[C@H]1[C@@](O)(C(=O)OC)[C@H](OC(C)=O)[C@]3(CC)C=CCN4CC[C@]21[C@@H]43 [Example 74, 12′-hexylvincristine]
GI50 [1, 3]: 40 nM
GI50 [2, 4]: 30 nM

CC[C@]1(O)C[C@H]2CN(CCc3c([nH]c4ccc(SCC(=O)O)cc34)[C@@](C(=O)OC)(c3cc4c(cc3OC)N(C)[C@H]3[C@@](O)(C(=O)OC)[C@H](OC(C)=O)[C@]5(CC)C=CCN6CC[C@]43[C@@H]65)C2)C1 [Example 45, 12′-(carboxymethylsulfanyl)vinblastine]
GI50 [1, 5]: 200 nM
GI50 ([2]; read-out: HeLa Cells GI50 (nM)): 50 nM

CC[C@]1(O)C[C@H]2CN(CCc3c([nH]c4ccc(Sc5cccc(O)c5)cc34)[C@@](C(=O)OC)(c3cc4c(cc3OC)N(C=O)[C@H]3[C@@](O)(C(=O)OC)[C@H](OC(C)=O)[C@]5(CC)C=CCN6CC[C@]43[C@@H]65)C2)C1 [Example 54, 12′-(3-hydroxyphenylsulfanyl)vincristine]
GI50 [1, 5]: 50 nM
GI50 ([2]; read-out: HeLa Cells GI50 (nM)): 100 nM

CC[C@]1(O)C[C@H]2CN(CCc3c([nH]c4cc(I)c(C)cc34)[C@@](C(=O)OC)(c3cc4c(cc3OC)N(C=O)[C@H]3[C@@](O)(C(=O)OC)[C@H](OC(C)=O)[C@]5(CC)C=CCN6CC[C@]43[C@@H]65)C2)C1 [Example 92, 13′-iodo-12′-methyl vincristine]
GI50 [1, 5]: 30 nM
GI50 ([2]; read-out: HeLa Cells GI50 (nM)): 30 nM

CC[C@]1(O)C[C@H]2CN(CCc3c([nH]c4ccc(CNC(C)C)cc34)[C@@](C(=O)OC)(c3cc4c(cc3OC)N(C)[C@H]3[C@@](O)(C(=O)OC)[C@H](OC(C)=O)[C@]5(CC)C=CCN6CC[C@]43[C@@H]65)C2)C1 [Example 64, 12′-(N-isopropylaminomethyl)vinblastine]
GI50 [1, 3]: > 1000 nM
GI50 [2, 4]: 900 nM

CC[C@]1(O)C[C@H]2CN(CCc3c([nH]c4ccc(Sc5ccccc5O)cc34)[C@@](C(=O)OC)(c3cc4c(cc3OC)N(C)[C@H]3[C@@](O)(C(=O)OC)[C@H](OC(C)=O)[C@]5(CC)C=CCN6CC[C@]43[C@@H]65)C2)C1 [Example 55, 12′-(2-hydroxyphenylsulfanyl)vinblastine]
GI50 [1, 5]: 6 nM
GI50 ([2]; read-out: HeLa Cells GI50 (nM)): 19 nM

CC[C@]1(O)C[C@H]2CN(CCc3c([nH]c4ccc(N(C)c5ccccc5)cc34)[C@@](C(=O)OC)(c3cc4c(cc3OC)N(C)[C@H]3[C@@](O)(C(=O)OC)[C@H](OC(C)=O)[C@]5(CC)C=CCN6CC[C@]43[C@@H]65)C2)C1 [Example 79, 12′-(N-methyl-N-phenylamino) vinblastine]
GI50 [1, 5]: > 1000 nM
GI50 ([2]; read-out: HeLa Cells GI50 (nM)): 700 nM

CC[C@]1(O)C[C@H]2CN(CCc3c([nH]c4ccc(N5CCCCC5)cc34)[C@@](C(=O)OC)(c3cc4c(cc3OC)N(C)[C@H]3[C@@](O)(C(=O)OC)[C@H](OC(C)=O)[C@]5(CC)C=CCN6CC[C@]43[C@@H]65)C2)C1 [Example 85, 12′-(1-piperidinyl) vinblastine]
GI50 [1, 5]: 30 nM
GI50 ([2]; read-out: HeLa Cells GI50 (nM)): 20 nM

CC[C@]1(O)C[C@H]2CN(CCc3c([nH]c4ccc(SCCCO)cc34)[C@@](C(=O)OC)(c3cc4c(cc3OC)N(C)[C@H]3[C@@](O)(C(=O)OC)[C@H](OC(C)=O)[C@]5(CC)C=CCN6CC[C@]43[C@@H]65)C2)C1 [Example 33, 12′-(4-hydroxypropylsulfanyl)vinblastine]
GI50 [1, 3]: 30 nM
GI50 [2, 4]: 20 nM

C=Cc1ccc2[nH]c3c(c2c1)CCN1C[C@H](C[C@@](O)(CC)C1)C[C@]3(C(=O)OC)c1cc2c(cc1OC)N(C)[C@H]1[C@@](O)(C(=O)OC)[C@H](OC(C)=O)[C@]3(CC)C=CCN4CC[C@]21[C@@H]43 [Example 25, 12′-vinylvinblastine]
GI50 [1, 3]: 9 nM
GI50 [2, 4]: 3 nM

CC[C@]1(O)C[C@H]2CN(CCc3c([nH]c4ccc(C=O)cc34)[C@@](C(=O)OC)(c3cc4c(cc3OC)N(C)[C@H]3[C@@](O)(C(=O)OC)[C@H](OC(C)=O)[C@]5(CC)C=CCN6CC[C@]43[C@@H]65)C2)C1 [Example 61, 12′-formylvinblastine]
GI50 [1, 3]: 3 nM
GI50 [2, 4]: 3 nM

CCC1=C[C@H]2CN(CCc3c([nH]c4ccc(Br)cc34)[C@@](C(=O)OC)(c3cc4c(cc3OC)N(C=O)[C@H]3[C@@](O)(C(=O)OC)[C@H](OC(C)=O)[C@]5(CC)C=CCN6CC[C@]43[C@@H]65)C2)C1 [Example 99, 12′-bromoanhydro vincristine]
GI50 [1, 3]: 1 nM
GI50 [2, 4]: 4 nM

CC[C@]1(O)C[C@H]2CN(CCc3c([nH]c4ccc(CO)cc34)[C@@](C(=O)OC)(c3cc4c(cc3OC)N(C)[C@H]3[C@@](O)(C(=O)OC)[C@H](OC(C)=O)[C@]5(CC)C=CCN6CC[C@]43[C@@H]65)C2)C1 [Example 63, 12′-(hydroxymethyl) vinblastine]
GI50 [1, 3]: 60 nM
GI50 [2, 4]: 40 nM

CC[C@]1(O)C[C@H]2CN(CCc3c([nH]c4ccc(-c5cccnc5)cc34)[C@@](C(=O)OC)(c3cc4c(cc3OC)N(C)[C@H]3[C@@](O)(C(=O)OC)[C@H](OC(C)=O)[C@]5(CC)C=CCN6CC[C@]43[C@@H]65)C2)C1 [Example 13, 12′-(3-pyridyl) vinblastine]
GI50 [1, 5]: 600 nM
GI50 ([2]; read-out: HeLa Cells GI50 (nM)): > 1000 nM

CC[C@]1(O)C[C@H]2CN(CCc3c([nH]c4ccc(SCCC(=O)OC)cc34)[C@@](C(=O)OC)(c3cc4c(cc3OC)N(C=O)[C@H]3[C@@](O)(C(=O)OC)[C@H](OC(C)=O)[C@]5(CC)C=CCN6CC[C@]43[C@@H]65)C2)C1 [Example 47, 12′-(methoxycarbonylethylsulfanyl) vincristine]
GI50 [1, 5]: 40 nM
GI50 ([2]; read-out: HeLa Cells GI50 (nM)): 20 nM

CC[C@]1(O)C[C@H]2CN(CCc3c([nH]c4ccc(C#C[Si](C)(C)C)cc34)[C@@](C(=O)OC)(c3cc4c(cc3OC)N(C)[C@H]3[C@@](O)(C(=O)OC)[C@H](OC(C)=O)[C@]5(CC)C=CCN6CC[C@]43[C@@H]65)C2)C1 [Example 16, 12′-(trimethylsilylethynyl)vinblastine]
GI50 [1, 3]: 40 nM
GI50 [2, 4]: 300 nM

CC[C@]1(O)C[C@H]2CN(CCc3c([nH]c4ccc(-c5ccc(F)cc5)cc34)[C@@](C(=O)OC)(c3cc4c(cc3OC)N(C)[C@H]3[C@@](O)(C(=O)OC)[C@H](OC(C)=O)[C@]5(CC)C=CCN6CC[C@]43[C@@H]65)C2)C1 [Example 10, 12′-(4-fluorophenyl) vinblastine]
GI50 [1, 5]: 95 nM
GI50 ([2]; read-out: HeLa Cells GI50 (nM)): 250 nM

CC[C@]1(O)C[C@H]2CN(CCc3c([nH]c4ccc(-c5cccc(F)c5)cc34)[C@@](C(=O)OC)(c3cc4c(cc3OC)N(C)[C@H]3[C@@](O)(C(=O)OC)[C@H](OC(C)=O)[C@]5(CC)C=CCN6CC[C@]43[C@@H]65)C2)C1 [Example 11, 12′-(3-fluorophenyl) vinblastine]
GI50 [1, 5]: 300 nM
GI50 ([2]; read-out: HeLa Cells GI50 (nM)): 300 nM

CC[C@]1(O)C[C@H]2CN(CCc3c([nH]c4ccc(-c5nccs5)cc34)[C@@](C(=O)OC)(c3cc4c(cc3OC)N(C)[C@H]3[C@@](O)(C(=O)OC)[C@H](OC(C)=O)[C@]5(CC)C=CCN6CC[C@]43[C@@H]65)C2)C1 [Example 15, 12′-(2-thiazolyl) vinblastine]
GI50 [1, 5]: 100 nM
GI50 ([2]; read-out: HeLa Cells GI50 (nM)): 200 nM

CCSc1ccc2[nH]c3c(c2c1)CCN1C[C@H](C[C@@](O)(CC)C1)C[C@]3(C(=O)OC)c1cc2c(cc1OC)N(C=O)[C@H]1[C@@](O)(C(=O)OC)[C@H](OC(C)=O)[C@]3(CC)C=CCN4CC[C@]21[C@@H]43 [Example 40, 12′-(ethylsulfanyl) vincristine]
GI50 [1, 3]: 8 nM
GI50 [2, 4]: 6 nM

CCc1cc2[nH]c3c(c2cc1C)CCN1C[C@H](C[C@@](O)(CC)C1)C[C@]3(C(=O)OC)c1cc2c(cc1OC)N(C=O)[C@H]1[C@@](O)(C(=O)OC)[C@H](OC(C)=O)[C@]3(CC)C=CCN4CC[C@]21[C@@H]43 [Example 94, 13′-ethyl-12′-methyl vincristine]
GI50 [1, 5]: 50 nM
GI50 ([2]; read-out: HeLa Cells GI50 (nM)): 30 nM

CC[C@]1(O)C[C@H]2CN(CCc3c([nH]c4ccc(SCCCN5CCOCC5)cc34)[C@@](C(=O)OC)(c3cc4c(cc3OC)N(C)[C@H]3[C@@](O)(C(=O)OC)[C@H](OC(C)=O)[C@]5(CC)C=CCN6CC[C@]43[C@@H]65)C2)C1 [Example 49, 12′-(3-(morpholin-4-yl)propylsulfanyl) vinblastine]
GI50 [1, 5]: 30 nM
GI50 ([2]; read-out: HeLa Cells GI50 (nM)): 8 nM
